Experimental data reported in patent US20230041738A1, “1H-PYRAZOLO[4,3-d]PYRIMIDINE COMPOUNDS AS TOLL-LIKE RECEPTOR 7 (TLR7) AGONISTS” (BRISTOL-MYERS SQUIBB COMPANY, priority 2020, published 2023).

Experiments:
[1] = biological target: T1, human TLR7 (Homo sapiens, UniProt Q9NYK1); assay: Human TLR7 agonist activity assay (hTLR7 reporter, HEK-Blue TLR7 cells, SEAP); type: cell-based; conditions: HEK-Blue TLR7 cells with SEAP reporter, 18 h treatment; average where assay performed multiple times
T1 construct: host or cells: HEK-Blue TLR7 cells (engineered human embryonic kidney cells)
T1 sequence (Q9NYK1 27-1049): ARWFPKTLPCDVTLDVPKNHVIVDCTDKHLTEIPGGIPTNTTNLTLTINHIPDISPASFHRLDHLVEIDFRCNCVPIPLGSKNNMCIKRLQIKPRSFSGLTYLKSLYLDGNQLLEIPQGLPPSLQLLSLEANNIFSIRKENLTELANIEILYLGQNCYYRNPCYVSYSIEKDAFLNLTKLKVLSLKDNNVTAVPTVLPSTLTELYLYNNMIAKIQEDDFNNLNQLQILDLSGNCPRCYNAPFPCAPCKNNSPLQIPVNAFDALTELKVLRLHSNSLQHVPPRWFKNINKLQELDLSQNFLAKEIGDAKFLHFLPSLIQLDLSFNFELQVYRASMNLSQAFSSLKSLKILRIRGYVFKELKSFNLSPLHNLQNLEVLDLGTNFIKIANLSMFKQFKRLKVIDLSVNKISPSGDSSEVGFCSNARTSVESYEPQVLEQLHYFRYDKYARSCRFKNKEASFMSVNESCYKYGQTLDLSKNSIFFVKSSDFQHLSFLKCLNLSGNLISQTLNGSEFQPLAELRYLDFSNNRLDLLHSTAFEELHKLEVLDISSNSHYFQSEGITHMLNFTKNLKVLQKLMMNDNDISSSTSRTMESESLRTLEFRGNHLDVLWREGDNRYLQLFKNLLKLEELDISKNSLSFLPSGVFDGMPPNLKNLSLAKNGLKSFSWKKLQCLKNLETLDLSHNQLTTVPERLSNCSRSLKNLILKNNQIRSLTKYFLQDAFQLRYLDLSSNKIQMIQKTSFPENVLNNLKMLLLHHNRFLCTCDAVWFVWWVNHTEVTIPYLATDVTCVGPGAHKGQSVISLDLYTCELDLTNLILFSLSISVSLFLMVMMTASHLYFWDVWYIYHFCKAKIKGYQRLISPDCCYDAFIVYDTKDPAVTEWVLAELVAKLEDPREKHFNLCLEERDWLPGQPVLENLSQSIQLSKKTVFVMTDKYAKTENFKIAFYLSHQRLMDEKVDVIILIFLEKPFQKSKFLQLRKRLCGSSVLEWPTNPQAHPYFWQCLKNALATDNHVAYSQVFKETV
Description: This procedure describes a method for assaying human TLR7 (hTLR7) agonist activity of the compounds disclosed in this specification.
HEK-Blue™ TLR7 cells were added to each well of a 384-well tissue-culture plate (15,000 cells per well) and incubated 16-18 h at 37° C., 5% CO2. Compounds (100 nl) were dispensed into wells containing the HEK-Blue™ TLR cells and the treated cells were incubated at 37° C., 5% CO2. After 18 h treatment ten microliters of freshly-prepared Quanti-Blue™ reagent (Invivogen) was added to each well, incubated for 30 min (37° C., 5% CO2) and SEAP levels measured using an Envision plate reader (OD=620 nm). The half maximal effective concentration values (EC50; compound concentration which induced a response halfway between the assay baseline and maximum) were calculated.

[2] = test system: CD69; assay: Induction of CD69 in human whole blood (hWB); type: cell-based; conditions: 17 hrs at 37 C, CD69 surface staining, 100% set to 1 uM resiquimod, average where performed multiple times
Description: The induction of Type I interferon (IFN) MX-1 genes and the B-cell activation marker CD69 are downstream events that occur upon activation of the TLR7 pathway. The following is a human whole blood assay that measures their induction in response to a TLR7 agonist.
Heparinized human whole blood was harvested from human subjects and treated with test TLR7 agonist compounds at 1 mM. The blood was diluted with RPMI 1640 media and Echo was used to predot 10 nL per well giving a final concentration of 1 uM (10 nL in 10 uL of blood). After mixing on a shaker for 30 sec, the plates were covered and placed in a 37° C. chamber for o/n=17 hrs. Fixing/lysis buffer was prepared (5×→1× in H2O, warm at 37° C.; Cat #BD 558049) and kept the perm buffer (on ice) for later use.
For surface markers staining (CD69): prepared surface Abs: 0.045 ul hCD14-FITC (ThermoFisher Cat #MHCD1401)+0.6 ul hCD19-ef450 (ThermoFisher Cat #48-0198-42)+1.5 ul hCD69-PE (cat #BD555531)+0.855 ul FACS buffer. Added 3 ul/well, spin1000 rpm for 1 min and mixed on shaker for 30 sec, put on ice for 30 mins. Stop stimulation after 30 min with 70 uL of prewarmed 1× fix/lysis buffer and use Feliex mate to resuspend (15 times, change tips for each plate) and incubate at 37C for 10 min.
Centrifuge at 2000 rpm for 5 min aspirate with HCS plate washer, mix on shaker for 30 sec and then wash with 70 uL in dPBS and pelleted 2× s (2000 rpm for 5 min) and 50 ul wash in FACS buffer pelleted 1×s(2000 rpm for 5 min). Mix on shaker for 30 sec. For Intracellular markers staining (MX-1): Add 50 ul of BD Perm buffer III and mix on shaker for 30 sec. Incubate on ice for 30 min (in the dark). Wash with 50 uL of FACS buffer 2× (spin @2300 rpm×5 min after perm) followed by mixing on shaker for 30 sec. Resuspended in 20 ul of FACS buffer containing MX1 antibody ( )(4812)-Alexa 647: Novus Biologicals #NBP2-43704AF647) 20 ul FACS bf+0.8 ul hlgG+0.04 ul MX-1. Spin 1000 rpm for 1 min, mix on shaker for 30se and the samples were incubated at RT in the dark for 45 min followed by washing 2× FACS buffer (spin @2300 rpm×5 min after perm). Resuspend 20 ul (35 uL total per well) of FACS buffer and cover with foil and place in 4° C. to read the following day. Plates were read on iQuePlus. The results were loaded into toolset and IC50 curves are generated in curve master. The y-axis 100% is set to 1 uM of resiquimod.

| EC50 [1] [nM] | EC50 [2] [nM] | SMILES |
| --- | --- | --- |
| 92.4 | 16.2 | CCCCNc1nc(N)nc2cnn(Cc3ccc(CN4C[C@H]5CN(C)C[C@H]5C4)cc3OC(F)F)c12 [Compound 117, 1-[(4-{[(3aR,6aS)-5-methyl-octa-hdropyrrolo[3,4-c]pyrrol-2-yl]methyl}-2-(difluoromethoxy)phenyl)-methyl]-N7-butyl-1H-pyrazolo[4,3-d]pyrimidine-5,7-diamine] |
| 682 | 16.7 | COc1cc(CN2C[C@@H]3C[C@H]2CO3)ccc1Cn1ncc2nc(N)nc(NCc3cc(C)on3)c21 [Compound 127, 1-[(2-methoxy-4-{[(1S,4S)-2-oxa-5-azabicyclo[2.2.1]heptan-5-yl]methyl}phenyl)methyl]-N7-[(5-methyl-1,2-oxazol-3-yl)methyl]-1H-pyrazolo[4,3-d]pyrimidine-5,7-diamine] |
| 323 | 804 | COc1cc(CN2C[C@@H]3C[C@H]2CN3)ccc1Cn1ncc2nc(N)nc(NCc3noc(C)n3)c21 [Compound 129, 1-[(4-{[(1S,4S)-2,5-diaza-bicyclo[2.2.1]heptan-2-yl]methyl}-2-methoxyphenyl)methyl]-N7-[(5-methyl-1,2,4-oxadiazol-3-yl)methyl]-1H-pyrazolo[4,3-d]pyri-midine-5,7-diamine] |
| 716 | 31.6 | CCC[C@@H](CCO)Nc1nc(N)nc2cnn(Cc3cnc(CN4C[C@H]5C[C@@H]4CN5CCO)cc3OC)c12 [Compound 140] |
| 278 | 3 | CCC[C@@H](CCO)Nc1nc(N)nc2cnn(Cc3ncc(CN4C[C@H]5C[C@@H]4CN5CCO)cc3OC)c12 [Compound 138, (3S)-3-({5-amino-1-[(5-{[(1R,4R)-5-(2-hydroxyethyl)-2,5-diaza-bicyclo[2.2.1]heptan-2-yl]methyl}-3-methoxypyridin-2-yl)methyl]-1H-pyrazolo[4,3-d]pyrimidin-7-yl}amino)hexan-1-ol] |
| 89.9 | 2.8 | CCC[C@@H](CCO)Nc1nc(N)nc2cnn(Cc3cnc(CN4C[C@H]5CNC[C@H]5C4)cc3OC)c12 [Compound 133, (3S)-3-({1-[(6-{[(3aR,6aS)-octa-hydropyrrolo[3,4-c]pyrrol-2-yl]methyl}-4-methoxypyridin-3-yl)methyl]-5-amino-1H-pyrazolo[4,3-d]pyrimidin-7-yl}amino)hexan-1-ol] |
| 135 | 74.3 | COc1cc(CN2C[C@@H]3C[C@H]2CN3C)ccc1Cn1ncc2nc(N)nc(NCc3noc(C)n3)c21 [Compound 130, 1-[(2-methoxy-4-{[(1S,4S)-5-methyl-2,5-diazabicyclo[2.2.1]-heptan-2-yl]methyl}phenyl)methyl]-N7-[(5-methyl-1,2,4-oxa-diazol-3-yl)methyl]-1H-pyrazolo[4,3-d]pyrimidine-5,7-diamine] |
| 16.4 | 11.1 | CCCCNc1nc(N)nc2cnn(Cc3ccc(C(=O)N4C[C@H]5CN(C)C[C@H]5C4)cc3OC)c12 [Compound 111, 1-({4-[(3aR,6aS)-5-methyl-octahydropyrrolo[3,4-c]pyrrole-2-carbonyl]-2-methoxyphenyl}-methyl)-N7-butyl-1H-pyrazolo[4,3-d]pyrimidine-5,7-diamine] |
| 297 | 12.2 | CCC[C@@H](CCO)Nc1nc(N)nc2cnn(Cc3ncc(CN4C[C@@H]5C[C@H]4CN5CCO)cc3OC)c12 [Compound 135, (3S)-3-({5-amino-1-[(5-{[(1S,4S)-5-(2-hydroxyethyl)-2,5-diaza-bicyclo[2.2.1]heptan-2-yl]methyl}-3-methoxypyridin-2-yl)methyl]-1H-pyrazolo[4,3-d]pyrimidin-7-yl}amino)hexan-1-ol] |
| 65.9 | 2.2 | CCC[C@@H](CCO)Nc1nc(N)nc2cnn(Cc3cnc(CN4C[C@H]5CN(C)C[C@H]5C4)cc3OC)c12 [Compound 132, (3S)-3-({1-[(6-{[(3aR,6aS)-5-methyl-octahydropyrrolo[3,4-c]pyrrol-2-yl]methyl}-4-methoxypyridin-3-yl)methyl]-5-amino-1H-pyrazolo [4,3-d]pyrimidin-7-yl}amino)hexan-1-ol] |
| 59.9 | 10.6 | CCC[C@@H](CCO)Nc1nc(N)nc2c(C)nn(Cc3ccc(CN4C[C@H]5C[C@@H]4CN5CCO)cc3OC)c12 [Compound 141, (3S)-3-({5-amino-1-[(4-{[(1R,4R)-5-(2-hydroxyethyl)-2,5-diazabicyclo [2.2.1]heptan-2-yl]methyl}-2-methoxyphenyl)methyl]-3-methyl-1H-pyrazolo[4,3-d]pyrimidin-7-yl}amino)hexan-1-ol] |
| 106 | 18.1 | CCC[C@@H](CCO)Nc1nc(N)nc2cnn(Cc3ccc(C(=O)N4C[C@H]5C[C@@H]4CN5C)cc3OC)c12 [Compound 119, (3S)-3-{[5-amino-1-({2-methoxy-4-[(1R,4R)-5-methyl-2,5-diazabicyclo [2.2.1]heptane-2-carbonyl]phenyl}methyl)-1H-pyrazolo[4,3-d]pyrimidin-7-yl]amino}hexan-1-ol] |
| 22.1 | 1.3 | CCC[C@@H](CCO)Nc1nc(N)nc2cnn(Cc3ccc(CN4C[C@H]5C[C@@H]4CN5C)cc3OC)c12 [Compound 121, (3S)-3-({5-amino-1-[(2-methoxy-4-{[(1R,4R)-5-methyl-2,5-diaza-bicyclo[2.2.1]heptan-2-yl]methyl}-phenyl)methyl]-1H-pyrazolo[4,3-d]pyrimidin-7-yl}amino)hexan-1-ol] |
| 172 | 14.2 | CCCCNc1nc(N)nc2cnn(Cc3ccc(C(=O)N4C[C@H]5CN(C)C[C@H]5C4)cc3OC(F)F)c12 [Compound 116, 1-({4-[(3aR,6aS)-5-methyl-octa-hydropyrrolo[3,4-c]pyrrole-2-carbonyl]-2-(difluoromethoxy)phenyl}-methyl)-N7-butyl-1H-pyrazolo[4,3-d]pyrimidine-5,7-diamine] |

| SMILES | EC50 [1] [nM] | EC50 [2] [nM] |
| --- | --- | --- |
| CCCCNc1nc(N)nc2cnn(Cc3ccc(CN4C[C@H]5CNC[C@H]5C4)cc3OC)c12 [Compound 136, 1-[(4-{[(3aR,6aS)-octahydro-pyrrolo[3,4-c]pyrrol-2-yl]methyl}-2-methoxyphenyl)methyl]-N7-butyl-1H-pyrazolo[4,3-d]pyrimidine-5,7-diamine] | 62.2 | 1.3 |
